From patent publication US10111847B2, “Compounds and methods for modulating vascular injury” (The Regents of the University of California, priority 2012, dated 2018)

Legend:
[1] = test system: human saphenous vein endothelial (EC) cells; assay: TNFα induced cellular ROS production (CellRox) in EC (Maresin-1); assay type: cell-based; details: TNFα 1 ng/ml
Description: Mar-1. Cells were grown in 8-well chamber slides at a density of 15000 cells/well for 2 days for VSMCs and 50000 cells/well for 2 days for ECs in a 96 well plate. After treatments, cells were incubated with dihydroethidium (DHE, 3 μM, Invitrogen) or CellRox (Invitrogen Inc, 5 μM for ECs) in media for 30 minutes at 37° C. in a humidified chamber with 5% CO2 protected from light. DAPI nuclear counter staining was utilized for DHE staining. For DHE, fluorescence was detected with TRITC filter allowing the detection of the DHE emission wavelength of 590-620 nm. Fluorescence quantitation was performed using ImageJ analysis software. For ECs, fluorescence measurements were taken using a Spectramax M2e plate reader.
FIGS. 13A-13D. Representative merged images of DHE staining, counterstained with DAPI. (A), Negative control. (B), TNFα at 10 ng/ml for 4 hr. […] (E) Quantitative comparison of DHE staining intensity in the nucleus of human saphenous vein vascular smooth muscle (sv-VSMC) cells, treated with TNFα and 7S and 7R-Maresin-1 with and without pertussis toxin. (F) Quantitative comparison of cellular ROS production by CellRox (Life technologies, Carlsbad, Calif.) in human saphenous vein endothelial (EC) cells treated with TNFα (1 ng/nil) and 7S-Maresin-1 (N>=3). […]

inflammatory mediators = assay: Inflammation cytokine array of conditioned medium from sv-ECs; assay type: cell-based, human; details: 100 nm, 30 min; TNF α 1 ng/ml 18 hrs
Description: Media was collected and incubated for 2 hr with the inflammation array membranes. The cells were harvested for protein estimation for normalization purposes. The membranes were washed following instruction protocol supplied by the manufacturer (Raybiotech Inc., Norcross, Ga.) and probed with biotinylated anti-cytokine antibody cocktail (provided by the manufacturer) for 2 hrs. The membranes were again washed with appropriate buffers provided by the manufacturer and incubated for 2 hrs with HRP-conjugated streptavidin, followed by chemiluminescence based detection of signal by Chemidoc (Biorad Inc.)
Inflammatory signals are amplified by autocrine and paracrine pathways that include the elaboration of pro-inflammatory mediators into the local extracellular milieu. Cells grown in 6 cm dish were serum starved for 24 hrs. The cells were then pre-treated with 100 nm 7S-Maresin-1 for 30 min followed by 18 hrs of TNF α (1 ng/ml). Cell culture media was collected and incubated with human inflammation cytokine array membranes (AAH-INF-3-4, Raybiotech Inc.), coated with antibodies (in duplicate) recognizing 40 different inflammatory mediators.
FIGS. 19A-19C. (A, B) Representative membrane images from a set of three pairs. (C) Densitometric quantitation of each of the attenuated inflammatory mediators in three independent experiments was performed and is represented in the bar graph. […]

carotid artery = assay: Mouse carotid artery ligation model, neointima formation; assay type: in vivo, FVB Mice; details: intraperitoneal 100 ng/dose on days 0, 1, 3, 5 and 7; sacrificed at 14 days
Description: To examine the potential therapeutic effects of systemic administration of pro-resolving mediators in acute vascular injury, a standardized mouse model of carotid ligation was employed. FVB Mice (N=23) were treated with intraperitoneal administration of RvD2 (100 ng/dose), 7R Mar-1 (100 ng/dose) or vehicle on days 0 (4 hrs prior to carotid injury), 1, 3, 5 and 7. Total dose received was 500 ng/mouse. Unilateral carotid ligation was performed as a standardized model of vascular injury, induced by low shear. Animals were then sacrificed at 14 days and perfusion-fixed vessels explanted for analysis. Following elastin staining, neointima (NI) and medial (M) compartments were measured by a blinded observer, and ratios (area and average wall thickness) calculated. Analysis was performed at mid CCA level (2.5 mm from ligature).
FIG. 22. (A)-(C), depict a cross-section of a carotid artery at mid CCA level (2.5 mm from ligature) from carotid ligation mouse model administered vehicle (A), RvD2 (B), or 7R-Mar-1 (C). (D)-(E) depict NUM ratio of the cross-section of the carotid artery at mid CCA level from carotid ligation mouse model administered vehicle, RvD2, or 7R-Mar-1. […]

| SMILES | TNF-α-induced superoxide production in EC [1] | levels of multiple inflammatory mediators in conditioned medium from EC (inflammatory mediators) | neointima formation following carotid artery ligation (carotid artery) |
| --- | --- | --- | --- |
| CC/C=C\C/C=C\C[C@H](O)\C=C/C=C/C=C/[C@@H](O)C/C=C\CCC(=O)O [7S-Maresin-1, 7S,14R-dihydroxydocosa-4Z,8E,10Z,12Z,16Z,19Z-hexaenoic acid] | significantly reduced | reduced | – |
| CC/C=C\C[C@H](O)[C@H](O)/C=C/C=C/C=C\C=C\[C@@H](O)C/C=C\CCC(=O)O [RvD2, resolvin D2] | – | – | Reduces |
